Data published in ChEMBL document CHEMBL4190375, “Current Insights of BRAF Inhibitors in Cancer” (J Med Chem, 2018).

What was measured:
[1] = tested on: A-375; experiment: Cytotoxicity against human A375 cells harboring BRAF V600E mutant after 72 hrs by CellTiter-Glo assay; type: functional, cell-based; conditions: A-375, 72 h
[2] = tested on: SK-MEL-28; experiment: Cytotoxicity against human SK-MEL-28 cells after 72 hrs by CellTiter-Glo assay; type: functional, cell-based; conditions: SK-MEL-28, 72 h
[3] = target: T1, Serine/threonine-protein kinase B-raf (Homo sapiens, UniProt P15056, V600E)
T1 sequence (P15056 2-766 V600E limits assumed): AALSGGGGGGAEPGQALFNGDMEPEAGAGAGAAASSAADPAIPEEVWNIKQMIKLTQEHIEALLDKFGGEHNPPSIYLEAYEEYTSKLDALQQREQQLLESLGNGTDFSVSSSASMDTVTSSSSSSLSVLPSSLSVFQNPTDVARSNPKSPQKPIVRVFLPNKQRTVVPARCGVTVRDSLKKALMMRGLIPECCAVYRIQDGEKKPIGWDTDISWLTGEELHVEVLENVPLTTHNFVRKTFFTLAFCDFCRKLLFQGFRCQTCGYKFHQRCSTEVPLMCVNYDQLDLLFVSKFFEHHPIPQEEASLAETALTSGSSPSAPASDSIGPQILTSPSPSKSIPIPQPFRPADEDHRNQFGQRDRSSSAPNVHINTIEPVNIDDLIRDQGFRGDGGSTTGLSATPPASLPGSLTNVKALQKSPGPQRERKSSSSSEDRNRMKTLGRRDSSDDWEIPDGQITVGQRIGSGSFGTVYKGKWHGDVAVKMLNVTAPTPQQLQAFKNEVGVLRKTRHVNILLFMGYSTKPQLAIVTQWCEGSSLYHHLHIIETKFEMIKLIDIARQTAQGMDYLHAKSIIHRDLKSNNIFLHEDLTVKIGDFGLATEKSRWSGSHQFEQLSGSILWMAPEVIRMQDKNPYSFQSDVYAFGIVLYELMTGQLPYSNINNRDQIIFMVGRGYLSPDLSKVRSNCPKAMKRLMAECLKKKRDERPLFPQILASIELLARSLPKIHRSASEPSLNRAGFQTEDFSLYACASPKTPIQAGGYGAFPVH

[4] = Cytotoxicity against human HCC364 cells harboring p61 V600E mutant; type: functional, cell-based
[5] = target: T1, Serine/threonine-protein kinase B-raf; experiment: biochemical
[6] = tested on: SK-MEL-30; experiment: cells; conditions: Homo sapiens, SK-MEL-30, 48 h
[7] = target: T1, Serine/threonine-protein kinase B-raf; experiment: Inhibition of BRAF V600E mutant in human A375 cells assessed as reduction in ERK phosphorylation; type: cell-based
[8] = target: T1, Serine/threonine-protein kinase B-raf; experiment: Inhibition of BRAF V600E mutant (unknown origin)
[9] = tested on: WM 266-4; experiment: Cytotoxicity in human WM266.4 cells after 72 hrs by CellTiter-Glo assay; type: functional, cell-based; conditions: WM 266-4, 72 h
[10] = Half life in human; type: ADME, organism-based; conditions: in vivo
[11] = tested on: A-375; experiment: Cytotoxicity against human A375 cells harboring BRAF V600E mutant; type: functional, cell-based
[12] = tested on: A-375; experiment: Cytotoxicity against human A375 cells harboring BRAF V600E mutant after 96 hrs by CellTiter-Glo assay; type: functional, cell-based; conditions: A-375, 96 h
[13] = tested on: SK-MEL19; experiment: Cytotoxicity against human SK-MEL-19 cells harboring BRAF mutant after 3 days; type: functional, cell-based; conditions: SK-MEL19, 72 h
[14] = target: T2, Serine/threonine-protein kinase B-raf (Homo sapiens, UniProt P15056); experiment: Inhibition of BRAF in human Jurkat T cells assessed as reduction in ERK phosphorylation; type: cell-based
T2 sequence (P15056 whole entry): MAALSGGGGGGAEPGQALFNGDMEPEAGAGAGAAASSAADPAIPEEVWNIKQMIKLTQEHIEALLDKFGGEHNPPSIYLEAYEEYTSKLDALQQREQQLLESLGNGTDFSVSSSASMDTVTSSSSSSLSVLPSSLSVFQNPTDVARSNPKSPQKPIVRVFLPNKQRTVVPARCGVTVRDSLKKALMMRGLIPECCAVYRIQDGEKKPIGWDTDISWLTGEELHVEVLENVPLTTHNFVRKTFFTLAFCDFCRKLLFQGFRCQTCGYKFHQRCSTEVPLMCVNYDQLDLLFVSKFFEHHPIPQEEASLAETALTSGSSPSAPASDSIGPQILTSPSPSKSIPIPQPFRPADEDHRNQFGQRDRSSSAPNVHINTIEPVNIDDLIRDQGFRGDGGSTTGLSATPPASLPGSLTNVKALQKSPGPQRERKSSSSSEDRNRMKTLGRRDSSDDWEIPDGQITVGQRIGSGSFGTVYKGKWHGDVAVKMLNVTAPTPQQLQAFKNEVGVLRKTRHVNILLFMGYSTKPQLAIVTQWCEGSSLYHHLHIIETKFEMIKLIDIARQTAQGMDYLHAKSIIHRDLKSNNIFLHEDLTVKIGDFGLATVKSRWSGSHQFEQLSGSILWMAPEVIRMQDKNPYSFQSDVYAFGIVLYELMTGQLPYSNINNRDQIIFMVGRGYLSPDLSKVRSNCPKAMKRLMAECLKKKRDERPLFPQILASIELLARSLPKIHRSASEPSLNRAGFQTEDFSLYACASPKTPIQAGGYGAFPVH

[15] = tested on: A-375; experiment: Cytotoxicity against human A375 cells harboring BRAF V600E mutant after 48 hrs by CellTiter-Glo assay; type: functional, cell-based; conditions: A-375, 48 h
[16] = target: T1, Serine/threonine-protein kinase B-raf; experiment: Inhibition of BRAF V600E mutant in human A375 cells assessed as reduction in ERK phosphorylation after 2 hrs by ELISA; type: cell-based
[17] = tested on: A-375; experiment: Cytotoxicity against human A375 cells harboring BRAF V600E mutant after 72 hrs by alamar blue assay; type: functional, cell-based; conditions: A-375, 72 h
[18] = target: T1, Serine/threonine-protein kinase B-raf; experiment: Inhibition of BRAF V600E mutant (unknown origin) by Z'-LYTE assay
[19] = target: T2, Serine/threonine-protein kinase B-raf; experiment: Inhibition of wild type BRAF (unknown origin) by Z'-LYTE assay
[20] = target: T3, RAF proto-oncogene serine/threonine-protein kinase (Homo sapiens, UniProt P04049); experiment: Inhibition of CRAF (unknown origin) by Z'-LYTE assay
T3 sequence (P04049 whole entry): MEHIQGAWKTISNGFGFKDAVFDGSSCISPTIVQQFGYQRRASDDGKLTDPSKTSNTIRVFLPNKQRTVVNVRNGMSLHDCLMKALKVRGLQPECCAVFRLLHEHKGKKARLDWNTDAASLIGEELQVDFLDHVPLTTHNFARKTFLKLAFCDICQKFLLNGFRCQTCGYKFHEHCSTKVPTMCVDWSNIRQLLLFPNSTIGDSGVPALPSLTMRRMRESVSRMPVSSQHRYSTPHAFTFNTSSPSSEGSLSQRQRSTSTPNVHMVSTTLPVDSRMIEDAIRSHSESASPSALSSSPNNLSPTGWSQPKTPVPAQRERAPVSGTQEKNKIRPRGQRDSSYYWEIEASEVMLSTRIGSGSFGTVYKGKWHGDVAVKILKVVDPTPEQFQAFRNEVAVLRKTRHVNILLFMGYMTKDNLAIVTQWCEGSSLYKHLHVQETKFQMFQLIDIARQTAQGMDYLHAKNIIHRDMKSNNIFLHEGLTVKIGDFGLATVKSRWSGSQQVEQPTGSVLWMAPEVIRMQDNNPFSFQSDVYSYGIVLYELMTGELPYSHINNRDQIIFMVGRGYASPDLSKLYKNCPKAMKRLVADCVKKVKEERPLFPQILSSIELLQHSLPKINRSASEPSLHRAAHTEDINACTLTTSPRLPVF

[21] = target: T3, RAF proto-oncogene serine/threonine-protein kinase; experiment: Inhibition of CRAF (unknown origin)
[22] = target: T2, Serine/threonine-protein kinase B-raf
[23] = target: T1, Serine/threonine-protein kinase B-raf; remark: listed apart in the source
[24] = target: T1, Serine/threonine-protein kinase B-raf; remark: listed apart in the source
[25] = target: T4, Serine/threonine-protein kinase A-Raf (Homo sapiens, UniProt P10398); experiment: Inhibition of ARAF (unknown origin)
T4 sequence (P10398 whole entry): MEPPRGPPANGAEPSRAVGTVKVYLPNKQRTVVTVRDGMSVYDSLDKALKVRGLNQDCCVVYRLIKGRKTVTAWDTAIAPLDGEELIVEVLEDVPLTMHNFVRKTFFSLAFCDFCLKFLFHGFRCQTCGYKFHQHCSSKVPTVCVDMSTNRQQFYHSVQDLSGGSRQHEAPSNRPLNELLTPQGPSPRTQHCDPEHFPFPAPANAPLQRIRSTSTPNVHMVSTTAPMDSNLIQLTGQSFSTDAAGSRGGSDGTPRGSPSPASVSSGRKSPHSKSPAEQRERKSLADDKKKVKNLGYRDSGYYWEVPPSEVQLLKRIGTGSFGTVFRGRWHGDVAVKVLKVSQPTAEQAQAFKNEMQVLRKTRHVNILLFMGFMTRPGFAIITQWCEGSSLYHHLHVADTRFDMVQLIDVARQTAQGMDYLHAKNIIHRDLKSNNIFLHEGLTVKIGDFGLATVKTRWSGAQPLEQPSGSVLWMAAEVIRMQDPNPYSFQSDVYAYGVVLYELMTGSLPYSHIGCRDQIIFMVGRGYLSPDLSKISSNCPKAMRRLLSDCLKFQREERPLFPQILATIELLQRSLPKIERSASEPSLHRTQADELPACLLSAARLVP

[26] = Tmax in human; type: ADME, organism-based; conditions: in vivo
[27] = Cytotoxicity against human PLGA cells harboring BRAF V600E mutant after 96 hrs by CellTiter-Glo assay; type: functional, cell-based

For `CCCS(=O)(=O)Nc1ccc(F)c(C(=O)c2c[nH]c3ncc(Cl)cc23)c1F` [PLX-4720], the IC50 [1] was 500 nM.
In the case of `CC(C)(C)c1nc(-c2cccc(NS(=O)(=O)c3c(F)cccc3F)c2F)c(-c2ccnc(N)n2)s1` [DABRAFENIB], the IC50 [2] is reported as 43 nM.
For `O=C(c1c(F)ccc(NS(=O)(=O)N2CC[C@H](F)C2)c1F)c1c[nH]c2ncc(-c3cnc(C4CC4)nc3)cc12`, the IC50 [3] was 3.5 nM, the IC50 [4] was 800 nM and the IC50 [5] was 3.8 nM.
`CNC(=O)c1cc(Oc2ccc(NC(=O)Nc3ccc(Cl)c(C(F)(F)F)c3)cc2)ccn1` [SORAFENIB] gave an IC50 [6] of 3900 nM.
In the case of `CC(C)(C)c1cc(NC(=O)Nc2ccc(Oc3ccnc4[nH]c(=O)cnc34)cc2F)n(-c2ccccc2)n1`, the IC50 [7] is reported as 5 nM, the IC50 [8] is reported as 40 nM and the IC50 [9] is reported as 15 nM.
With `CNc1ncc2cc(-c3cc(NC(=O)NCCC(C)(C)C)c(F)cc3C)c(C)nc2n1` [LY-3009120] the half-life [10] was 67 h.
Molecule `CCN(C)S(=O)(=O)Nc1ccc(F)c(C(=O)c2c[nH]c3ncc(-c4cnc(C5CC5)nc4)cc23)c1F` has an IC50 [3] of 16 nM, an IC50 [11] of 170 nM and an IC50 [5] of 4.2 nM.
`CC(C)(N)c1cc(C(=O)NC2CCc3ccc(Oc4ccnc5c4CCC(=O)N5)cc3C2)cc(C(F)(F)F)c1` (stereo not given) showed an IC50 [1] of 200 nM.
For `OCCn1cc(-c2ccc3c(c2)CC/C3=N\O)c(-c2ccncc2)n1`, the EC50 [12] was > 500 nM.
For `COC(=O)Nc1nc2cc(C3(O)c4ccccc4C(=O)N3c3cc(Cl)ccc3C)ccc2[nH]1` (stereo not given) [XL-281], the IC50 [13] was 200 nM, the IC50 [8] was 6 nM and the IC50 [14] was 2000 nM.
`CSc1cc(Oc2ccnc3[nH]c(=O)cnc23)ccc1NC(=O)Nc1cc(C(C)(C)C)nn1-c1ccccc1` gave an IC50 [1] of 10 nM, an IC50 [7] of 5 nM and an IC50 [8] of 15 nM.
`CN(C)CCOc1ccc(-c2nc(-c3ccncc3)c(-c3ccc4c(c3)CC/C4=N\O)[nH]2)cc1` [SB590885] showed an IC50 [15] of 370 nM.
With `CCCS(=O)(=O)Nc1ccc(F)c(-n2cc(-c3cncnc3)c3nc(N(C)C4CCN(CC)CC4)ccc32)c1F` [XP-102] the IC50 [16] was 0.5 nM, the IC50 [17] was 0.9 nM and the IC50 [18] was 0.4 nM. The IC50 [19] was 0.8 nM and the IC50 [20] was 0.6 nM.
`O=C1CCc2c(Oc3ccc4c(c3)[C@H]3[C@@H](O4)[C@@H]3c3nc4ccc(C(F)(F)F)cc4[nH]3)ccnc2N1` gave an IC50 [21] of 7 nM, an IC50 [1] of 200 nM and an IC50 [22] of 32 nM. It also gave an IC50 [23] of 23 nM, an IC50 [24] of 64 nM and an IC50 [25] of 5.6 nM.
In the case of `C[C@H](NC(=O)c1ncnc(N)c1Cl)c1ncc(C(=O)Nc2cc(C(F)(F)F)c(Cl)cn2)s1`, the Tmax [26] is reported as 2 h and the IC50 [27] is reported as 248 nM.
